This note sets out measurements from patent US4983328A, “N-(4-(3-aminopropyl)aminobutyl)-2-(ω-gua nidino-fatty-acid-amido(-2-substituted-ethanamide, salt thereof, and process for preparation thereof” (Bristol-Myers Company, priority 1981, dated 1991).

The fraction remaining is the share of the starting amount still present when the sample was taken. Low values mean a greater loss, high ones greater stability.

Data set [1] can be described thus: chemical stability: retention (%) after heating at 60° C. for 4 hours, by HPLC. It counts as physicochemical. On the procedure: The chemical stability of the present compound was evaluated by determining the retention (%) after heating at 60° C. for 4 hours. In Table 5 are shown the test results together with those for spergualin as reference. The retention was determined by means of high performance liquid chromatography (HPLC). The column was packed with Nucleosil® 5C18. The solvent used for spergualin was a mixture (6:94) of acetonitrile -0.01M sodium pentanesulfonate +0.01M Na2 HPO4 (pH 3), while that for the compounds of this invention was a mixture of acetonitrile -0.005M sodium pentanesulfonate ±0.01M Na2 HPO4 (pH 3). The mixture ratio in the latter case was varied for each particular compound. For instance, a mixing ratio of 10:90 was used for Compound No. 9, while that of 7:93 for Compound No. 22.

The subject of data set [2] is mouse leukemia L-1210 cells. Briefly: growth inhibitory activity to cancer cells in vitro (L-1210, 48 hours). It counts as cell-based. Particulars: for inhibition at 1.25 µg/mL: L1210, 1.25 mcg/ml; for inhibition at 2.5 µg/mL: L1210, 2.5 mcg/ml; for inhibition at 5 µg/mL: L1210, 5 mcg/ml; for inhibition at 10 µg/mL: L1210, 10 mcg/ml; for inhibition at 20 µg/mL: L1210, 20 mcg/ml; for inhibition at 40 µg/mL: L1210, 40 mcg/ml; for IC50: L1210, L-1210 cells, read-out: 50% inhibitory concentration. A digest of the protocol: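 L-1210 cells from DBA/2 mouse ascites, cultured at 5×10^4 cells per well in RPMI 1640 with 10% FCS and 5 μM 2-mercaptoethanol, 37° C, CO2, for 48 h with compound. Cell counts by Coulter Counter gave % inhibition (1−T/C)×100, and IC50 was derived across concentrations.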

The nature of data set [3]: acute toxicity in mice (single intraperitoneal administration). Particulars: mouse, in vivo, ip, read-out: LD50 (median lethal dose on single administration). On the procedure:
In Table 8 median lethal doses (LD50) of typical compounds of this invention are shown, measured in mice upon single intraperitoneal administration, as well as maximum tolerated doses in terms of total dose when a fixed amount per unit body weight was administered intraperitoneally to mice once a day for 6 consecutive days.
*Median lethal dose on single administration.

Data set [4] in a line: cumulative toxicity in mice (maximum tolerated dose, once a day for 6 consecutive days). The note with it: mouse, in vivo, ip, i.p. once a day for 6 consecutive days, total dose, read-out: Maximum Tolerated Dose (total dose not causing death). A digest of the protocol:
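Mice dosed intraperitoneally once a day for 6 consecutive days with a fixed amount per unit body weight. The value is the maximum total dose not causing death.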

A further data set deals with mouse leukemia L-1210. Briefly: therapeutic effect on implanted cancer in mice (L-1210, survival over 30 days). Particulars: L1210, ip, 720 h, 6 days. It counts as in vivo, mouse (BDF1). An outline of the steps:
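Male BDF1 mice aged 5 weeks received an intraperitoneal inoculation of 10^5 L-1210 mouse leukemia cells. Starting on the inoculation day, test compounds dissolved in physiological saline were injected intraperitoneally once daily for 6 consecutive days, and animals were then followed for 30 days to record survival.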

Where [5] appears, read: read-out: Growth inhibition (%), (1-T/C) × 100.

≈ marks a conversion by molar mass, not a printed value. Where two headings read alike, the source gives them in different places. Bounds are passed on as bounds.

As for `N=C(N)NCCCCCCC(=O)NC(OCc1ccccc1)C(=O)NCCCCNCCCN` (stereo not drawn) [Compound 15, N-[4-(3-aminopropyl)aminobutyl]-2-(7-guanidinoheptanamido)-2-benzyloxyethanamide], the amount remaining at 4 h in data set [1] (pH 2, pH 2) was found to be 76.5%; in data set [1] (pH 3, pH 3) it was 91.4%; in data set [1] (pH 4, pH 4) it was 100%; in data set [1] (pH 6, pH 6), 100%; in data set [1] (pH 8, pH 8), 100%; in data set [1] (pH 9, pH 9), 99%. The compound further registered an amount remaining at 4 h in data set [1] (pH 10, pH 10) of 96.2%. Also, in data set [2] (setting [5]), the inhibition at 1.25 µg/mL is 27.1%. In data set [2] (setting [5]), the inhibition at 2.5 µg/mL came to 39%. The inhibition at 5 µg/mL in data set [2] (setting [5]) was determined as 71%. For the same compound, the inhibition at 10 µg/mL in data set [2] (setting [5]) came to 94.5%. Also, in data set [2] (setting [5]), the inhibition at 20 µg/mL worked out at 97.7%. For the same compound, the inhibition at 40 µg/mL in data set [2] (setting [5]) was found to be 100%. In data set [2], the IC50 came out at 3.1 µg/mL (≈ 6.49 µM). The LD50 in data set [3] (mice, single i.p.) lay within 12.5 to 25 mg/kg. Further, the MTD in data set [4] was above 75 mg/kg.

Take `N=C(N)NCCCCCCC(=O)NC(OCCO)C(=O)NCCCCNCCCN` (stereo not drawn) [Compound 14, N-[4-(3-aminopropyl)aminobutyl]-2-(7-guanidinoheptanamido)-2-(2-hydroxy)ethoxyethanamide]: the fraction remaining at 4 h amounted to 71.8% in data set [1] (pH 2, pH 2); 90.6% in data set [1] (pH 3, pH 3); 100% in data set [1] (pH 4, pH 4); 100% in data set [1] (pH 6, pH 6); 100% in data set [1] (pH 8, pH 8); 97.5% in data set [1] (pH 9, pH 9). This compound also showed a share remaining at 4 h in data set [1] (pH 10, pH 10) of 97.3%. Besides, the inhibition at 5 µg/mL in data set [2] (setting [5]) was determined as 22.3%. Moreover, the inhibition at 10 µg/mL in data set [2] (setting [5]) turned out to be 24.6%. For the same compound, the inhibition at 20 µg/mL in data set [2] (setting [5]) amounted to 29.9%. Also, the inhibition at 40 µg/mL in data set [2] (setting [5]) came out at 42.7%. Further, in data set [2] (L1210, 80 mcg/ml, read-out: Growth inhibition (%), (1-T/C) × 100), the inhibition at 80 µg/mL turned out to be 58.6%. Also, the IC50 in data set [2] was 52 µg/mL (≈ 120 µM). The LD50 in data set [3] (mice, single i.p.) is 25 to 50 mg/kg. For the same compound, in data set [4], the MTD is above 150 mg/kg.

With `CCCCOC(NC(=O)C[C@@H](O)CCCCNC(=N)N)C(=O)NCCCCNCCCN` (stereo partly drawn) [Compound 24, N-[4-(3-aminopropyl)aminobutyl]-2-(7-guanidino-3-hydroxyheptanamido)-2-butoxyethanamide], the share remaining at 4 h worked out at 76.3% in data set [1] (pH 2, pH 2); 100% in data set [1] (pH 4, pH 4); 100% in data set [1] (pH 5, pH 5); 100% in data set [1] (pH 6, pH 6); 100% in data set [1] (pH 7, pH 7); 100% in data set [1] (pH 8, pH 8). The share remaining at 4 h in data set [1] (pH 9, pH 9) came out at 97.1%; in data set [1] (pH 10, pH 10), 94.8%. Also, the inhibition at 2.5 µg/mL in data set [2] (setting [5]) worked out at 47.3%. Further, the inhibition at 5 µg/mL in data set [2] (setting [5]) came out at 75.6%. For the same compound, the inhibition at 10 µg/mL in data set [2] (setting [5]) was 89.5%. Further, the inhibition at 20 µg/mL in data set [2] (setting [5]) is 95%. In data set [2] (setting [5]), the inhibition at 40 µg/mL was determined as 97.2%. The IC50 in data set [2] stood at 2.6 µg/mL (≈ 5.66 µM). Also, the LD50 in data set [3] (mice, single i.p.) is above 50 mg/kg. For the same compound, in data set [4], the MTD was above 300 mg/kg.

Take `N=C(N)NCCCC[C@H](O)CC(=O)NC(OCc1ccccc1)C(=O)NCCCCNCCCN` (stereo partly drawn) [Compound 26, N-[4-(3-aminopropyl)aminobutyl]-2-(7-guanidino-3-hydroxyheptanamido)-2-benzyloxyethanamide]: the share remaining at 4 h in data set [1] (pH 2, pH 2) amounted to 77.2%; in data set [1] (pH 4, pH 4), 100%; in data set [1] (pH 5, pH 5), 100%; in data set [1] (pH 6, pH 6), 100%; in data set [1] (pH 7, pH 7), 100%; in data set [1] (pH 8, pH 8), 100%. Further, the share remaining at 4 h in data set [1] (pH 9, pH 9) was 95.9%; in data set [1] (pH 10, pH 10) it was 94.5%. The inhibition at 2.5 µg/mL in data set [2] (setting [5]) amounted to 54.2%. For the same compound, the inhibition at 5 µg/mL in data set [2] (setting [5]) was found to be 79%. The inhibition at 10 µg/mL in data set [2] (setting [5]) was 90.2%. The inhibition at 20 µg/mL in data set [2] (setting [5]) turned out to be 96.6%. For the same compound, the inhibition at 40 µg/mL in data set [2] (setting [5]) was determined as 97.3%. Further, in data set [2], the IC50 is 2.2 µg/mL (≈ 4.46 µM). Moreover, in data set [3], the LD50 lay in the range of 12.5 to 25 mg/kg. Besides, in data set [4], the MTD was above 75 mg/kg.

For `N=C(N)NCCCCCCC(=O)NC(O)C(=O)NCCCCNCCCN` (stereo not drawn) [Compound 4, N-[4-(3-aminopropyl)aminobutyl]-2-(7-guanidinoheptanamido)-2-hydroxyethanamide], in data set [2] (setting [5]), the inhibition at 1.25 µg/mL was 20%, the inhibition at 2.5 µg/mL is 27.5%, the inhibition at 5 µg/mL was found to be 29.9% and the inhibition at 10 µg/mL amounted to 58.4%. Besides, in data set [2] (setting [5]), the inhibition at 20 µg/mL was 75.5% and the inhibition at 40 µg/mL came to 78.7%. Further, the IC50 in data set [2] turned out to be 8.1 µg/mL (≈ 20.9 µM). Besides, in the data set on mouse leukemia L-1210 (0.20 mg/kg/day i.p., read-out: Number of mice survived for 30 days (converted)), the responders at 0.2 mg/kg was 0%. In addition, the response vs control in vivo at 0.2 mg/kg with mouse leukemia L-1210 (0.20 mg/kg/day i.p., read-out: Prolongation of survival period (%), T/C × 100) was 197%. Also, in the data set with mouse leukemia L-1210 (0.39 mg/kg/day i.p., read-out: Number of mice survived for 30 days (converted)), the responders at 0.39 mg/kg is 75%. Moreover, the response vs control in vivo at 0.39 mg/kg with mouse leukemia L-1210 (0.39 mg/kg/day i.p., read-out: Prolongation of survival period (%), T/C × 100) was above 390%. In addition, the responders at 0.78 mg/kg in the data set on mouse leukemia L-1210 (0.78 mg/kg/day i.p., read-out: Number of mice survived for 30 days (converted)) was 100%. For the same compound, the response vs control in vivo at 0.78 mg/kg in the data set on mouse leukemia L-1210 (0.78 mg/kg/day i.p., read-out: Prolongation of survival period (%), T/C × 100) was above 429%. Further, the responders at 1.56 mg/kg in the data set with mouse leukemia L-1210 (1.56 mg/kg/day i.p., read-out: Number of mice survived for 30 days (converted)) was 100%. Moreover, in the data set with mouse leukemia L-1210 (1.56 mg/kg/day i.p., read-out: Prolongation of survival period (%), T/C × 100), the response vs control in vivo at 1.56 mg/kg is above 429%. For the same compound, in the data set on mouse leukemia L-1210 (3.13 mg/kg/day i.p., read-out: Number of mice survived for 30 days (converted)), the responders at 3.13 mg/kg is 50%. In the data set on mouse leukemia L-1210 (3.13 mg/kg/day i.p., read-out: Prolongation of survival period (%), T/C × 100), the response vs control in vivo at 3.13 mg/kg is above 364%. Besides, in the data set with mouse leukemia L-1210 (6.25 mg/kg/day i.p., read-out: Number of mice survived for 30 days (converted)), the responders at 6.25 mg/kg was 25%. The response vs control in vivo at 6.25 mg/kg in the data set on mouse leukemia L-1210 (6.25 mg/kg/day i.p., read-out: Prolongation of survival period (%), T/C × 100) was above 369%. For the same compound, the responders at 12.5 mg/kg in the data set with mouse leukemia L-1210 (12.5 mg/kg/day i.p., read-out: Number of mice survived for 30 days (converted)) was 50%. Also, the response vs control in vivo at 12.5 mg/kg in the data set with mouse leukemia L-1210 (12.5 mg/kg/day i.p., read-out: Prolongation of survival period (%), T/C × 100) was above 357%. Besides, the responders at 25 mg/kg in the data set with mouse leukemia L-1210 (25 mg/kg/day i.p., read-out: Number of mice survived for 30 days (converted)) was 0%. The response vs control in vivo at 25 mg/kg in the data set with mouse leukemia L-1210 (25 mg/kg/day i.p., read-out: Prolongation of survival period (%), T/C × 100) came to 336%. The responders at 50 mg/kg in the data set with mouse leukemia L-1210 (50 mg/kg/day i.p., read-out: Number of mice survived for 30 days (converted)) was 0%. Besides, the response vs control in vivo at 50 mg/kg with mouse leukemia L-1210 (50 mg/kg/day i.p., read-out: Prolongation of survival period (%), T/C × 100) amounted to 0%. For the same compound, the LD50 in data set [3] (mice, single i.p.) is 25 to 50 mg/kg. Further, in data set [4], the MTD is above 150 mg/kg.
